This test deals with S1P1 receptors (Homo sapiens, UniProt P21453). The test is described as follows: 35S-GTPyS binding assay. The test is classed as biochemical. The conditions noted are these: membranes; compound 0.1 nM-10 μM; 0.1 nM 35S-GTPyS; 10 μM S1P as 100% maximum efficacy; 90 min at room temperature. On the procedure:
The effect of the compounds was measured using a 35S-GTPyS binding assay. Briefly, membranes were incubated in a buffer containing 20 mM HEPES pH 7.4, 100 mM NaCl, 10 mM MgCl2, 10 μM GDP, 50 μg/ml saponin and 0.2% fatty acid-free BSA at various concentrations (0.1 nM-10 μM) and 0.1 nM 35S-GTPyS. 10 μM S1P was used as 100% maximum efficacy. The assay was incubated for 90 min at room temperature with gentle mixing, and terminated by filtrating the reaction mixture through GF/C filter plates using the Manifold Filtration System. The filters were immediately washed with sodium phosphate pH 7.4 buffers. After drying the filter plate's scintillant liquid were added to each well and 35S-GTPyS binding was measured on a Trilux Scintillation Counter.

From patent publication US20110200557A1, “NEW 2-AMIDOTHIADIAZOLE DERIVATIVES” (priority 2008, published 2011) come the findings set out here.

S1P1 receptors, sequence (P21453 whole entry): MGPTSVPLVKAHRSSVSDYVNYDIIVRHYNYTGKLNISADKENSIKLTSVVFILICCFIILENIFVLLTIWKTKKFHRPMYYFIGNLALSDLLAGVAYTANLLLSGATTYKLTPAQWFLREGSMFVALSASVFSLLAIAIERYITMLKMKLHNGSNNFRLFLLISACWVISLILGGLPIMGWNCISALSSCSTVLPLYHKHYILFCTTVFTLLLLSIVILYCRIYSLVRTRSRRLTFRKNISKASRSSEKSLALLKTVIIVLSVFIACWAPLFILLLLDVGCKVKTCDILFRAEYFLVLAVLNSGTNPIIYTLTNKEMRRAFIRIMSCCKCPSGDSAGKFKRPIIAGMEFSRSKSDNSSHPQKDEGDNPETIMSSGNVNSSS

Turning to `CCCCN(C(=O)c1ccccc1Cl)c1nnc(-c2cc(C)c(O)c(C)c2)s1` [Example 8, N-butyl-2-chloro-N-[5-(4-hydroxy-3,5-dimethylphenyl)-1,3,4-thiadiazol-2-yl]benzamide], the midpoint of the response, the EC50, lay at 6.2 nM.
For the molecule `CCCCN(C(=O)c1ccccc1F)c1nnc(-c2cc(C)c(OC)c(C)c2)s1` [Example 9, N-butyl-2-fluoro-N-[5-(4-methoxy-3,5-dimethylphenyl)-1,3,4-thiadiazol-2-yl]benzamide], a half-maximal response (EC50) required 4.4 nM.
With `CCCCN(C(=O)c1ccccc1OC)c1nnc(-c2cc(C)c(OC)c(C)c2)s1` [Example 19, N-butyl-2-methoxy-N-[5-(4-methoxy-3,5-dimethylphenyl)-1,3,4-thiadiazol-2-yl]benzamide] the figure was 8.3 nM.
For the molecule `CCCCN(C(=O)c1ccccc1Cl)c1nnc(-c2cc(Cl)nc(OC)c2)s1` [Example 31, N-Butyl-2-chloro-N-[5-(2-chloro-6-methoxypyridin-4-yl)-1,3,4-thiadiazol-2-yl]benzamide], the EC50 (in general, the concentration at which the effect is half-maximal) was determined as 3.4 nM.
To `CCCCN(C(=O)c1ccccc1Cl)c1nnc(-c2cc(C)c(OCCOC)c(C)c2)s1` [Example 32, N-butyl-2-chloro-N-{5-[4-(2-methoxyethoxy)-3,5-dimethylphenyl]-1,3,4-thiadiazol-2-yl}benzamide] belongs 64.2 nM; to `CCCCN(C(=O)c1ccccc1Cl)c1nnc(-c2cc(C)nc(Cl)c2)s1` [Example 39, N-Butyl-2-chloro-N-[5-(2-chloro-6-methylpyridin-4-yl)-1,3,4-thiadiazol-2-yl]benzamide], 3.8 nM.
Consider `COc1c(C)cc(-c2nnc(N(CC3CC3)C(=O)c3ccccc3F)s2)cc1C` [Example 46, N-(cyclopropylmethyl)-2-fluoro-N-[5-(4-methoxy-3,5-dimethylphenyl)-1,3,4-thiadiazol-2-yl]benzamide], for which a half-maximal effect (EC50) was put at 36 nM.
Molecule `CCCCN(C(=O)c1ccccc1F)c1nnc(-c2ccc(OC)nc2)s1` [Example 48, N-butyl-2-fluoro-N-(5-(6-methoxypyridin-3-yl)-1,3,4-thiadiazol-2-yl)benzamide] yielded an EC50 of 116 nM.
In turn, `CCCCN(C(=O)c1ccccc1F)c1nnc(-c2ccc3nccn3c2)s1` [Example 49, N-butyl-2-fluoro-N-(5-(imidazo[1,2-a]pyridin-6-yl)-1,3,4-thiadiazol-2-yl)benzamide] returned an EC50 of 88.7 nM.
With `CCCCN(C(=O)c1ccccc1Cl)c1nnc(-c2ccc(C(N)=O)cc2)s1` [Example 53, N-butyl-N-(5-(4-carbamoylphenyl)-1,3,4-thiadiazol-2-yl)-2-chlorobenzamide] the figure was 46.3 nM; with `CCCCN(C(=O)c1ccccc1F)c1nnc(-c2ccc(C(=O)NCCC(=O)O)cc2)s1` [Example 69, N-(4-{5-[Butyl(2-fluorobenzoyl)amino]-1,3,4-thiadiazol-2-yl}benzoyl)-beta-alanine], 55 nM; with `CCCCN(C(=O)Cc1ccccc1F)c1nnc(-c2ccc(CN3CC(C(=O)O)C3)cc2)s1` [Example 87, 1-[4-(5-{Butyl[(2-fluorophenyl)acetyl]amino}-1,3,4-thiadiazol-2-yl)benzyl]azetidine-3-carboxylic acid], 1.4 nM.
Take `CCCCN(C(=O)c1ccccc1F)c1nnc(-c2ccc(CN3CCC(C(=O)O)C3)cc2C)s1` (stereo not drawn) [Example 97, 1-(4-{5-[Butyl(2-fluorobenzoyl)amino]-1,3,4-thiadiazol-2-yl}-3-methylbenzyl)-pyrrolidine-3-carboxylic acid]: the EC50 was 2 nM.
To `CCCCN(C(=O)c1ccccc1F)c1nnc(-c2cc(C)c(OCCN)c(C)c2)s1` [Example 105, N-{5-[4-(2-Aminoethoxy)-3,5-dimethylphenyl]-1,3,4-thiadiazol-2-yl}-N-butyl-2-fluorobenzamide] belongs 0.45 nM; to `CCN(C(=O)c1cccc(Cl)c1F)c1nnc(-c2ccc(CN3CC(C(=O)O)C3)cc2)s1` [Example 108, 1-(4-{5-[(3-Chloro-2-fluorobenzoyl)(ethyl)amino]-1,3,4-thiadiazol-2-yl}benzyl)-azetidine-3-carboxylic acid], 7 nM; to `CCCCN(C(=O)c1cccc(Cl)c1F)c1nnc(-c2cc(C)c(OCC(O)CO)c(C)c2)s1` (stereo not drawn) [Example 111, N-Butyl-3-chloro-N-{5-[4-(2,3-dihydroxypropoxy)-3,5-dimethylphenyl]-1,3,4-thiadiazol-2-yl}-2-fluorobenzamide], 0.15 nM.
With `CCCCN(C(=O)c1ccccc1F)c1nnc(-c2cc(C)c(OCC(O)CN)c(C)c2)s1` (stereo not drawn) [Example 113, N-{5-[4-(3-Amino-2-hydroxypropoxy)-3,5-dimethylphenyl]-1,3,4-thiadiazol-2-yl}-N-butyl-2-fluorobenzamide] the figure was 1.52 nM; with `CCCCN(C(=O)c1ccccc1Cl)c1nnc(-c2ccc(CN3CCC(C(=O)O)CC3)cc2C)s1` [Example 118, 1-(4-{5-[Butyl(2-chlorobenzoyl)amino]-1,3,4-thiadiazol-2-yl}-3-methylbenzyl)-piperidine-4-carboxylic acid], 4.42 nM.
